Measurements published in patent US9586916B2, “Integrin antagonist conjugates for targeted delivery to cells expressing alpha-V-beta-3” (Hoffmann-La Roche Inc., priority 2012, dated 2017).

Molecular target: T1, αVβ3 (Homo sapiens, UniProt P05106+P06756)
T1 construct: purchased R & D 3050-AV
Test: Human αVβ3 solid phase assay (fibrinogen binding to coated αVβ3)
Conditions: αVβ3 coated plates, fibrinogen as ligand
Experimental: The following assay was conducted to assess αVβ3 binding affinity of the αVβ3-targeted compounds of this invention.
Human αVβ3 solid phase assay:
Immuno 96-well Plates (NUNC, Part#439454) were coated with αVβ3 (R & D, Cat#3050-AV) by adding 100 uL of αVβ3 (lx) to each well and incubating the plates overnight at […]. Buffer used was Buffer A: 20 mM Tris, 150 mM NaCl, 1 mM CaCl2, 1 mM MgCl2, pH7.4. After removal of the coating reagent, 150 uL of 3.5% BSA in Buffer A was added to each well to block the plates for 105 minutes at […]. After blocking, plates were washed 5 times with 200 uL of Buffer B (Buffer A+1 mM MnC12). 50 uL of test compound solution (2×) in 5% DMSO and 50 uL of fibrinogen (2×) (Innovative Research, Cat# IFIB) were then added to each well. Plates were shaken for 2 minutes, and then incubated for 2 hours for 370 C. After the plates were washed 5 times with 200 uL of Buffer B, the 1st antibody rabbit anti-human fibrinogen (Innovative Research, Cat IASHFBGN-GF) in the amount of 100 uL/well, and the 2nd antibody Goat anti-rabbit IgG Horse-radish peroxidase conjugate (Invitrogen, Cat#G21234) in the amount of 50 uL/well were added to plates, respectively. […] After being added 100 uL/well Stop Buffer (1.0 M Phosphoric Acid […]), plates were read on Envision at Absorbance mode 450 nm.

T1 sequence (P06756 31-992 limits assumed): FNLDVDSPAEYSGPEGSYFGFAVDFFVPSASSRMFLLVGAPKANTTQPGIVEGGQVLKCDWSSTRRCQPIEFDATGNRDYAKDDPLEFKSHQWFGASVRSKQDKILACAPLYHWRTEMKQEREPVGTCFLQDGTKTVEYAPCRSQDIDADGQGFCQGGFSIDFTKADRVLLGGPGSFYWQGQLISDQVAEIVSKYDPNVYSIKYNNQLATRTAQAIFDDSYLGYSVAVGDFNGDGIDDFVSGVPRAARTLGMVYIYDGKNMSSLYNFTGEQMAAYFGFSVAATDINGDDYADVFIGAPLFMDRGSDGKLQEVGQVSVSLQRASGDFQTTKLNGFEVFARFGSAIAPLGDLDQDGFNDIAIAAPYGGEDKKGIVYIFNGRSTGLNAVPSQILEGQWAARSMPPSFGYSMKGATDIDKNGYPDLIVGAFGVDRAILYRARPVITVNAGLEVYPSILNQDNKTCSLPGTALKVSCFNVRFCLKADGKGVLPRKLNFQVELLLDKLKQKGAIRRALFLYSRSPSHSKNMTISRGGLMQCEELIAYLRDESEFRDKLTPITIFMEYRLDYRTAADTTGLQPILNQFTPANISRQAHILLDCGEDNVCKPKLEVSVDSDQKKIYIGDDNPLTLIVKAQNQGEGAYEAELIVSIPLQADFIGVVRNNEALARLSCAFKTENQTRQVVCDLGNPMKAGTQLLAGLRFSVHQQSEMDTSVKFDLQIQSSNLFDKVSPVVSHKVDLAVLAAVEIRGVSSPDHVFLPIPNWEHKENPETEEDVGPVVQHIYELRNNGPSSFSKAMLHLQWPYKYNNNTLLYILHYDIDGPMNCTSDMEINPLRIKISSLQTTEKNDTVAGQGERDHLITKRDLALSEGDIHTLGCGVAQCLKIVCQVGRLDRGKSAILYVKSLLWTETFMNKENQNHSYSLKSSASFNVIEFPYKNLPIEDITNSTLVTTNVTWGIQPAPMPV
T1 sequence (P05106 27-718 limits assumed): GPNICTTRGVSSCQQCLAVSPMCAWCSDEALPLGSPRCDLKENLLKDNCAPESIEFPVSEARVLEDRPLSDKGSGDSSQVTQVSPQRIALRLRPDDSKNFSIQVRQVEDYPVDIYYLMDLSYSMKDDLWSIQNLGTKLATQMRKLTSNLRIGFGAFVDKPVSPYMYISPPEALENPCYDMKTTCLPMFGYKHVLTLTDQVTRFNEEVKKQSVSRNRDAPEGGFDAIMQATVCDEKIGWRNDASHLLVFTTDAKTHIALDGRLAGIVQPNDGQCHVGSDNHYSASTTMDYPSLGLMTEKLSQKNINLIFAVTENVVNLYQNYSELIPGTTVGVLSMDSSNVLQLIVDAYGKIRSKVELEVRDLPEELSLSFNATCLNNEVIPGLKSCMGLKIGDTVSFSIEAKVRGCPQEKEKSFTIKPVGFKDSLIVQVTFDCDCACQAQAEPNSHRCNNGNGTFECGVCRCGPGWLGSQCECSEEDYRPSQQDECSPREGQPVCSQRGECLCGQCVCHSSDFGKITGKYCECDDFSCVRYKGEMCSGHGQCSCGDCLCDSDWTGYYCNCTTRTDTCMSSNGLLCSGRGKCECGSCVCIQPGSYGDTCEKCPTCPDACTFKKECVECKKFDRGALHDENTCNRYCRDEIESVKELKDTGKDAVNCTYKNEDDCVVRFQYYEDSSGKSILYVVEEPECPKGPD

IC50: ~2 nM
SMILES: COc1ccc(NC(=O)[C@H](CC(=O)O)NC(=O)CNC(=O)c2cccc(N=C(N)N)c2)cc1 [compound 141]
